Measured values as given in patent publication US20240327415A1, “Multicomponent Complexes, Including Salts, Crystalline Forms, and Hydrates and Solvates of ENT1 Inhibitors” (iTeos Belgium SA, priority 2023, published 2024).

Columns and labels:
Type in all cases: physicochemical
[1] = pH solubility studies in buffers and biorelevant media (Example 16); details: for ML purity / Solub.: 24 h; for solubility: 24 hours
Method: Example 16—pH Solubility Studies—(1) Crystalline Form 2 Compound 1 di(hydrogen sulfate) trihydrate, (2) Crystalline Form 3 Compound 1 di(hydrogen sulfate), and (3) Crystalline Form 4 Compound 1 mono(hydrogen sulfate): pH solubility studies were carried out on the prepared crystalline Form 2 Compound 1 di(hydrogen sulfate) trihydrate, crystalline Form 3 Compound 1 di(hydrogen sulfate) and crystalline Form 4 Compound 1 mono(hydrogen sulfate) in the following media: (1) HCl/KCl, pH 1.2; (2) Acetate, pH 4.5; (3) Phosphate, pH 6.8; (4) FaSSIF; (5) FeSSIF; and (6) FaSSGF. Slurries of the hydrogen sulfate forms were prepared in the appropriate medium and stirred at 25° C. For the experiments in the buffer media, the pH of the slurry samples was measured and adjusted as required after 1 hour and 23 hours of the slurrying. Additional solid was added where dissolution was observed post-adjustment. The pH of the samples in the biorelevant media was measured at the 23 hour timepoint. No pH adjustment was made for the biorelevant media. After a total of 24 hours of slurrying, the mother liquors were extracted via centrifugation, and the concentrations and solution purity were determined by HPLC. The residual solids were isolated and analyzed by XRPD and are shown in FIG. 77, FIG. 78, and FIG. 79. The assessment was repeated for some of the samples, where required.

[2] = Karl Fischer coulometric titration (water content)
Method: In the examples below, KF titration measured using either an In Motion KF Autosampler or Direct Addition Method. The In Motion KF Autosampler was carried out via the following procedure. 15-20 mg of solid was weighed into a 10 mL glass vial and tightly sealed with a screw cap. Samples were analyzed using a Mettler Toledo C30SX and an InMotion KFOven Autosampler at 130° C. Samples were analyzed in duplicate and an average moisture content reported. See table below for further details.
The Direct Addition Method was carried out via the following procedure. 15-20 mg of solid material was accurately weighed into a vial. The solid was then manually introduced into the titration cell of a Mettler Toledo C30 Compact Titrator. The vial was back-weighed after the addition of the solid and the weight of the added solid entered on the instrument. Titration was initiated once the sample had fully dissolved in the cell. The water content was calculated automatically by the instrument as a percentage and the data printed.

[3] = seven-day solid stability studies (ambient; 40° C./75% RH; 80° C.), XRPD and HPLC; details: for solid form by XRPD after storage: 7 days
Outline: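 Solid samples of the free base and sulfate salt forms held 7 days under three conditions: ambient light, temperature and humidity (open vial), 40° C./75% RH (open vial), and 80° C. (closed vial). Residual solids then analysed by XRPD and HPLC purity.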

[4] = FaSSGF, 25° C., pH after 24 h 0.87
[5] = FaSSIF, 25° C., pH after 24 h 1.10
[6] = FeSSIF, 25° C., pH after 24 h 1.01, Cloudy
[7] = pH 1.2 (HCl/KCl), attempt 1, 25° C., pH after 24 h 1.13
[8] = pH 4.5 (Acetate), attempt 1, 25° C., pH after 24 h 4.76→4.58
[9] = pH 4.5 (Acetate), attempt 2, 25° C., pH after 24 h 4.88→4.56
[10] = pH 6.8 (Phosphate), attempt 1, 25° C., pH after 24 h 5.57→6.70
[11] = pH 6.8 (Phosphate), attempt 2, 25° C., pH after 24 h 1.57→6.71

COc1cc(C(=O)O[C@@H]2CCCOc3cc(cc(OC)c3OC)C(=O)NCCCN3CCCN(CC2)CC3)cc(OC)c1OC.O=S(=O)(O)O.O=S(=O)(O)O [crystalline Form 3 Compound 1 di(hydrogen sulfate)]
ML purity [1, 4]: 99.51 % area
Solub. [1, 4]: 72.0 mg/mL
ML purity [1, 5]: 99.76 % area
Solub. [1, 5]: 77.1 mg/mL
ML purity [1, 6]: 99.90 % area
Solub. [1, 6]: ≥208.3 mg/mL
solution purity of the extracted mother liquors ([1]; after 24 hours slurrying in the media (Form 2: all samples except pH 4.5 Attempt 1)): > 95 % area
solubility ([1]; all the media assessed, except the pH 4.5 media, 25° C.): > 50 mg/mL
pH solubility ([1]; pH 1.2): pH 1.2: 76 mg/mL
pH solubility: residual solid ([1]; pH 1.2): mg/mL, Form 2
ML purity [1, 7]: 99.56 % area
Solub. [1, 7]: 75.7 mg/mL
pH solubility ([1]; pH 4.5): pH 4.5: 54 mg/mL
pH solubility: residual solid ([1]; pH 4.5): mg/mL, Form 4
ML purity [1, 8]: 99.59 % area
Solub. [1, 8]: 54.2 mg/mL
ML purity [1, 9]: 95.53 % area
Solub. [1, 9]: 20.0 mg/mL
solubility ([1]; pH 4.5 media, Attempt 2, 25° C.): 20 mg/mL
pH solubility ([1]; pH 6.8): pH 6.8: 150 mg/mL
pH solubility: residual solid ([1]; pH 6.8): mg/mL, Gum
ML purity [1, 10]: 99.87 % area
Solub. [1, 10]: 122.5 mg/mL
ML purity [1, 11]: 99.16 % area
Solub. [1, 11]: 152.8 mg/mL
KF moisture content [2]: 1.89% moisture
7-day Stability studies: Purity compared to input [3]: Purity similar
solid form by XRPD after storage ([3]; 40° C./75% RH): Conversion to crystalline Form 2 Compound 1 di(hydrogen sulfate) trihydrate
solid form by XRPD after storage ([3]; 80° C.): mixture of crystalline Form 3 Compound 1 di(hydrogen sulfate) and crystalline Form 9 Compound 1 di(hydrogen sulfate)
solid form by XRPD after storage ([3]; ambient conditions): conversion to crystalline Form 6 Compound 1 di(hydrogen sulfate)
7-day Stability studies: solid form ([3]; at 80° C.): Form 9 at 80 °C
7-day Stability studies: solid form ([3]; at ambient): Form 6 at ambient;
